Measured values: patent US12268697B2, “Oxysterols and methods of use thereof” (Sage Therapeutics, Inc., priority 2015, dated 2025)

Target: T1, GlunN1/GluN2A glutamate receptors (Homo sapiens, UniProt Q05586+Q12879)
T1 construct: expressed in transfected cells
Assay: Whole-cell patch clamp of mammalian cells (Ionworks Barracuda, IWB), NMDA potentiation
Assay type: cell-based
Conditions: 3 μM test article; HEK293 cells expressing human GRIN1/GRIN2A; co-application with EC20 L-glutamate and 30 μM glycine
Protocol: NMDA potentiation was assessed using either whole cell patch clamp of mammalian cells which expressed NMDA receptors.
Whole-Cell Patch Clamp of Mammalian Cells (Ionworks Barracuda (IWB)
The whole-cell patch-clamp technique was used to investigate the effects of compounds on GlunN1/GluN2A glutamate receptors expressed in mammalian cells.
HEK293 cells were transformed with adenovirus 5 DNA and transfected with cDNA encoding the human GRIN1/GRIN2A genes. Stable transfectants were selected using G418 and Zeocin-resistance genes incorporated into the expression plasmid and selection pressure maintained with G418 and Zeocin in the medium. Cells were cultured in Dulbecco's Modified Eagle Medium/Nutrient Mixture (D-MEM/F-12) supplemented with 10% fetal bovine serum, 100 μg/ml penicillin G sodium, 100 μg/ml streptomycin sulphate, 100 μg/ml Zeocin, 5 μg/ml blasticidin and 500 μg/ml G418.
Test article effects were evaluated in 8-point concentration-response format (4 replicate wells/concentration). […]
• a) Intracellular solution (mM): 50 mM CsCl, 90 mM CsF, 2 mM MgCl2, 5 mM EGTA, 10 mM HEPES. […] Cell suspension will be pipetted into the wells (9 μL per well) of the PPC planar electrode. • b) Whole-cell recording configuration will be established via patch perforation with membrane currents recorded by on-board patch clamp amplifiers. • c) Two recordings (scans) will be performed. […]

T1 sequence (Q12879 23-1464, other chains not shown): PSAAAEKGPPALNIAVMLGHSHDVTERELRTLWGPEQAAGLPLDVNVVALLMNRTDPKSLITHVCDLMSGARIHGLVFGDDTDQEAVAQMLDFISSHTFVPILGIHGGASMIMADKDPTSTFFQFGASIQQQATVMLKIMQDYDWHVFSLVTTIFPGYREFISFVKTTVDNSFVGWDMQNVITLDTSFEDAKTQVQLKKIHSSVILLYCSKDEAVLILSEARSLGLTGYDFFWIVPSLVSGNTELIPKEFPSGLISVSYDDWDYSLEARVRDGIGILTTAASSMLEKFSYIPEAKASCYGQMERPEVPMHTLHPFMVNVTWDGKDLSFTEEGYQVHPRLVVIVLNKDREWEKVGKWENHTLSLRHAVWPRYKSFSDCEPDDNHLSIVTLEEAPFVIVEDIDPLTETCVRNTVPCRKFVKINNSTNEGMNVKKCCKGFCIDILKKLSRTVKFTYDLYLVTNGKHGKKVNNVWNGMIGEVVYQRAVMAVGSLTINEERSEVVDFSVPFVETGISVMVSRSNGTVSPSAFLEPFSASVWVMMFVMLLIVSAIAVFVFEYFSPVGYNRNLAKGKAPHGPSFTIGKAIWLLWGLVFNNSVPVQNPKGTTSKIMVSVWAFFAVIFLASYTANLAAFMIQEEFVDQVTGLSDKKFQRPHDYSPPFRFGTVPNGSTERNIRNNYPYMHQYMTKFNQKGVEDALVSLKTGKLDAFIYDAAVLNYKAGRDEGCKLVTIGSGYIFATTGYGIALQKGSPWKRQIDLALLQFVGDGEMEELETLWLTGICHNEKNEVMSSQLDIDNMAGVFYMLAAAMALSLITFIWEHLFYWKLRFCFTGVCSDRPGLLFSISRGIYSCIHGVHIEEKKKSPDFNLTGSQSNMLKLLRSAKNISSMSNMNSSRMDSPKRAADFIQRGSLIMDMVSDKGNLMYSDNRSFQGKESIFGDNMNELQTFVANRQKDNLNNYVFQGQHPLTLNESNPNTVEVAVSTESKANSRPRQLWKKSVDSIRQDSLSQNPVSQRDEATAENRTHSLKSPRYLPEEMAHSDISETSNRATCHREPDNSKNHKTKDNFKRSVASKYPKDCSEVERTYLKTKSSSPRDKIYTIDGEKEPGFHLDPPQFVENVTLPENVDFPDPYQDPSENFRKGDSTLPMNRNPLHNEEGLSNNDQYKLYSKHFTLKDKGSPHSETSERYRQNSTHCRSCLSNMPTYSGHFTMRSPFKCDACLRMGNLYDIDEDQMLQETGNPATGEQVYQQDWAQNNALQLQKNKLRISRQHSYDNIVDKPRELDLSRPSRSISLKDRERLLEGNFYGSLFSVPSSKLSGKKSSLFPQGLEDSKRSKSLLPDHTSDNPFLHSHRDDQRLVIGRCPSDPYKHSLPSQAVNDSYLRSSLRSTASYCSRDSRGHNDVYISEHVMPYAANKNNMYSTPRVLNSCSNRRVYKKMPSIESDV

## C[C@H](CCC[C@@H](C)O)[C@H]1CC[C@H]2[C@@H]3CC[C@H]4C[C@@](C)(O)CC[C@]4(C)[C@H]3CC[C@]12C [Compound 24]
  GluN2A PCA IWB Ephys % potentiation at 3 μM: B (“B” indicates potentiation of >100%)
